Results published in patent publication US10703733B2, “MCL-1 inhibitors” (Gilead Sciences, Inc., priority 2018, dated 2020).
Like-named read-outs stand apart in the source and are kept apart here.

Legend:
[1] = biological target: MCL-1/Bim interaction (recombinant human MCL-1 protein, residues 171-327; biotinylated human Bim peptide, residues 51-76) (Homo sapiens (Human), UniProt Q07820); test: MCL-1/Bim Binding AlphaLISA Assay; conditions: 0.0625 nM 6xHis-Mcl-1 (171-327), 0.0625 nM biotinylated-Bim peptide
Method in brief: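 Protein 0.0625 nM + cpd, 1 h; add biotin-Bim 0.0625 nM, 2 h; acceptor beads 1 h; donor beads 1 h; AlphaScreen read. Buffer 20 mM Hepes pH 7.5, 150 mM NaCl, 1 mM DTT.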

SKBR3 cells = test: SKBR3 Cell Viability Assay (CellTiter Glo); type: cell-based; conditions: CellTiter Glo luminescence, read-out: MCL-1 CV SKBR3 EC50
Method in brief: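 Viability read as CellTiter Glo luminescence after 72 h of compound exposure at 37° C./5% CO2, using 6,000 SKBR3 cells per well in McCoy 5A with 10% FBS. Percent inhibition scaled between DMSO wells and 10 μM puromycin wells.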

Chain of MCL-1/Bim interaction (recombinant human MCL-1 protein, residues 171-327; biotinylated human Bim peptide, residues 51-76) (Q07820 171-327): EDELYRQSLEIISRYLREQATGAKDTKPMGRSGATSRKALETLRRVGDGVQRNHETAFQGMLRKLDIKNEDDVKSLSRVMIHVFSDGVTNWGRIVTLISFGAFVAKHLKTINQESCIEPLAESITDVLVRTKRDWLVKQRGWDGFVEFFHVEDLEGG

Structure (SMILES): CO[C@H]1/C=C/CCC[S@@](=O)(NC(=O)NCc2ccncc2)=NC(=O)c2ccc3c(c2)N(C[C@@H]2CC[C@H]21)C[C@@]1(CCCc2cc(Cl)ccc21)CO3 [Example 79]
- IC50 [1]: 0.4 nM
- EC50 (SKBR3 cells; Homo sapiens, SK-BR-3, 72 h): 3030 nM

Structure (SMILES): COc1nn(C)cc1C(=O)N[S@@]1(=O)=NC(=O)c2ccc3c(c2)N(C[C@@H]2CC[C@H]2[C@@H](OC)/C=C/C[C@H](C)[C@H]1C)C[C@@]1(CCCc2cc(Cl)ccc21)CO3 [Example 188]
- IC50 [1]: 0.069 nM
- EC50 (SKBR3 cells; Homo sapiens, SK-BR-3, 72 h): 78.3 nM

Structure (SMILES): COC[C@H]1C[C@@H](NC(=O)N[S@@]2(=O)=NC(=O)c3ccc4c(c3)N(C[C@@H]3CC[C@H]3[C@@H](OC)/C=C/C[C@H](C)C2)C[C@@]2(CCCc3cc(Cl)ccc32)CO4)C1 [Example 210]
- IC50 [1]: 0.071 nM
- EC50 (SKBR3 cells; Homo sapiens, SK-BR-3, 72 h): 43.4 nM

Structure (SMILES): CO[C@H]1/C=C/C[C@H](C)C[S@@](=O)(NC(=O)C2CC3(CCC3)C2)=NC(=O)c2ccc3c(c2)N(C[C@@H]2CC[C@H]21)C[C@@]1(CCCc2cc(Cl)ccc21)CO3 [Example 436]
- IC50 [1]: 0.886 nM
- EC50 (SKBR3 cells; Homo sapiens, SK-BR-3, 72 h): 753 nM

Structure (SMILES): CO[C@H]1/C=C/CCC[S@@](=O)(NC(=O)CCC2CC2)=NC(=O)c2ccc3c(c2)N(C[C@@H]2CC[C@H]21)C[C@@]1(CCCc2cc(Cl)ccc21)CO3 [Example 81]
- IC50 [1]: 0.5 nM
- EC50 (SKBR3 cells; Homo sapiens, SK-BR-3, 72 h): 612 nM

Structure (SMILES): CO[C@H]1/C=C/C[C@H](C)C[S@@](=O)(NC(=O)NC2CC3(C2)CC(F)(F)C3)=NC(=O)c2ccc3c(c2)N(C[C@@H]2CC[C@H]21)C[C@@]1(CCCc2cc(Cl)ccc21)CO3 [Example 437]
- IC50 [1]: 0.301 nM
- EC50 (SKBR3 cells; Homo sapiens, SK-BR-3, 72 h): 123 nM

Structure (SMILES): CO[C@H]1/C=C/C[C@H](C)C[S@@](=O)(NC(=O)N[C@H]2C[C@](C)(O)C2)=NC(=O)c2ccc3c(c2)N(C[C@@H]2CC[C@H]21)C[C@@]1(CCCc2cc(Cl)ccc21)CO3 [Example 172]
- IC50 [1]: 0.022 nM
- EC50 (SKBR3 cells; Homo sapiens, SK-BR-3, 72 h): 125 nM

Structure (SMILES): COc1nn(C)cc1C(=O)N[S@@]1(=O)=NC(=O)c2ccc3c(c2)N(C[C@@H]2CC[C@H]2[C@@H](OC)/C=C/[C@H](O)[C@H](C)[C@H]1C)C[C@@]1(CCCc2cc(Cl)ccc21)CO3 [Example 374]
- IC50 [1]: 0.058 nM
- EC50 (SKBR3 cells; Homo sapiens, SK-BR-3, 72 h): 47.5 nM

Structure (SMILES): COCCNC(=O)N[S@@]1(=O)=NC(=O)c2ccc3c(c2)N(C[C@@H]2CC[C@H]2[C@@H](OC)/C=C/C[C@H](C)C1)C[C@@]1(CCCc2cc(Cl)ccc21)CO3 [Example 132]
- IC50 [1]: 0.038 nM
- EC50 (SKBR3 cells; Homo sapiens, SK-BR-3, 72 h): 72 nM

Structure (SMILES): CO[C@H]1/C=C/C[C@H](C)C[S@@](=O)(NC(=O)N[C@H]2C[C@@H]2C)=NC(=O)c2ccc3c(c2)N(C[C@@H]2CC[C@H]21)C[C@@]1(CCCc2cc(Cl)ccc21)CO3 [Example 117]
- IC50 [1]: 0.113 nM
- EC50 (SKBR3 cells; Homo sapiens, SK-BR-3, 72 h): 82.9 nM

Structure (SMILES): CO[C@H]1/C=C/C[C@H](C)C[S@@](=O)(NC(=O)N[C@H]2C[C@@H]2CO)=NC(=O)c2ccc3c(c2)N(C[C@@H]2CC[C@H]21)C[C@@]1(CCCc2cc(Cl)ccc21)CO3 [Example 171]
- IC50 [1]: 0.033 nM
- EC50 (SKBR3 cells; Homo sapiens, SK-BR-3, 72 h): 130 nM

Structure (SMILES): COC(=O)N1CCC(OCC(=O)N[S@@]2(=O)=NC(=O)c3ccc4c(c3)N(C[C@@H]3CC[C@H]3[C@@H](OC)/C=C/C[C@H](C)[C@H]2C)C[C@@]2(CCCc3cc(Cl)ccc32)CO4)CC1 [Example 418]
- IC50 [1]: 0.197 nM
- EC50 (SKBR3 cells; Homo sapiens, SK-BR-3, 72 h): 335 nM

Structure (SMILES): CO[C@H]1/C=C/C[C@H](C)C[S@@](=O)(NC(=O)N[C@H]2C[C@@H]2OC)=NC(=O)c2ccc3c(c2)N(C[C@@H]2CC[C@H]21)C[C@@]1(CCCc2cc(Cl)ccc21)CO3 [Example 160]
- IC50 [1]: 0.031 nM
- EC50 (SKBR3 cells; Homo sapiens, SK-BR-3, 72 h): 35 nM

Structure (SMILES): CO[C@H]1/C=C/CCC[S@@](=O)(NC(=O)CCc2cc(C)nn2C)=NC(=O)c2ccc3c(c2)N(C[C@@H]2CC[C@H]21)C[C@@]1(CCCc2cc(Cl)ccc21)CO3 [Example 89]
- IC50 [1]: 0.5 nM
- EC50 (SKBR3 cells; Homo sapiens, SK-BR-3, 72 h): 855 nM

Structure (SMILES): CO[C@H]1/C=C/CCC[S@@](=O)(NC(=O)CCCn2cccn2)=NC(=O)c2ccc3c(c2)N(C[C@@H]2CC[C@H]21)C[C@@]1(CCCc2cc(Cl)ccc21)CO3 [Example 85]
- IC50 [1]: 0.6 nM
- EC50 (SKBR3 cells; Homo sapiens, SK-BR-3, 72 h): 3090 nM

Structure (SMILES): COc1nc(OC)c(C(=O)N[S@@]2(=O)=NC(=O)c3ccc4c(c3)N(C[C@@H]3CC[C@H]3[C@@H](OC)/C=C/C[C@H](C)C2)C[C@@]2(CCCc3cc(Cl)ccc32)CO4)c(OC)n1 [Example 459]
- IC50 [1]: 0.085 nM
- EC50 (SKBR3 cells; Homo sapiens, SK-BR-3, 72 h): 194 nM

Structure (SMILES): CO[C@H]1/C=C/C[C@H](C)C[S@@](=O)(NC(=O)N2CC3(CN(C)C(=O)O3)C2)=NC(=O)c2ccc3c(c2)N(C[C@@H]2CC[C@H]21)C[C@@]1(CCCc2cc(Cl)ccc21)CO3 [Example 272]
- IC50 [1]: 0.018 nM
- EC50 (SKBR3 cells; Homo sapiens, SK-BR-3, 72 h): 47.9 nM

Structure (SMILES): CO[C@H]1/C=C/C[C@H](C)C[S@@](=O)(NC(=O)[C@H]2CCOC2)=NC(=O)c2ccc3c(c2)N(C[C@@H]2CC[C@H]21)C[C@@]1(CCCc2cc(Cl)ccc21)CO3 [Example 427]
- IC50 [1]: 0.104 nM
- EC50 (SKBR3 cells; Homo sapiens, SK-BR-3, 72 h): 332 nM

Structure (SMILES): COc1ccc(C(=O)N[S@@]2(=O)=NC(=O)c3ccc4c(c3)N(C[C@@H]3CC[C@H]3[C@@H](OC)/C=C/C[C@H](C)C2)C[C@@]2(CCCc3cc(Cl)ccc32)CO4)cc1 [Example 269]
- IC50 [1]: 0.081 nM
- EC50 (SKBR3 cells; Homo sapiens, SK-BR-3, 72 h): 264 nM

Structure (SMILES): COC(=O)N1CCn2cc(C(=O)N[S@@]3(=O)=NC(=O)c4ccc5c(c4)N(C[C@@H]4CC[C@H]4[C@@H](OC)/C=C/C[C@H](C)C3)C[C@@]3(CCCc4cc(Cl)ccc43)CO5)cc2C1 [Example 177]
- IC50 [1]: 0.129 nM
- EC50 (SKBR3 cells; Homo sapiens, SK-BR-3, 72 h): 46.4 nM

Structure (SMILES): COc1c(C(=O)N[S@@]2(=O)=NC(=O)c3ccc4c(c3)N(C[C@@H]3CC[C@H]3[C@@H](OC)/C=C/C[C@H](C)C2)C[C@@]2(CCCc3cc(Cl)ccc32)CO4)cn2c1C[C@H](OC)C2 [Example 451]
- IC50 [1]: 0.52 nM
- EC50 (SKBR3 cells; Homo sapiens, SK-BR-3, 72 h): 161 nM

Structure (SMILES): CO[C@H]1/C=C/CCC[S@@](=O)(NC(=O)NC2(C(F)(F)F)CC2)=NC(=O)c2ccc3c(c2)N(C[C@@H]2CC[C@H]21)C[C@@]1(CCCc2cc(Cl)ccc21)CO3 [Example 32]
- IC50 [1]: 1.4 nM
- EC50 (SKBR3 cells; Homo sapiens, SK-BR-3, 72 h): 1480 nM

Structure (SMILES): CO[C@H]1/C=C/C[C@H](C)C[S@@](=O)(NC(=O)N[C@H]2C[C@H]2OC)=NC(=O)c2ccc3c(c2)N(C[C@@H]2CC[C@H]21)C[C@@]1(CCCc2cc(Cl)ccc21)CO3 [Example 317]
- IC50 [1]: 0.034 nM
- EC50 (SKBR3 cells; Homo sapiens, SK-BR-3, 72 h): 48.5 nM

Structure (SMILES): CO[C@H]1/C=C/[C@H](OC)[C@H](C)C[S@@](=O)(NC(=O)c2cc(CN3CCN4CCOC[C@@H]4C3)n(C)c2)=NC(=O)c2ccc3c(c2)N(C[C@@H]2CC[C@H]21)C[C@@]1(CCCc2cc(Cl)ccc21)CO3 [Example 399]
- IC50 [1]: 0.07 nM
- EC50 (SKBR3 cells; Homo sapiens, SK-BR-3, 72 h): 20 nM

Structure (SMILES): CO[C@H]1/C=C/CCC[S@@](=O)(NC(=O)N2CCS(=O)(=O)CC2)=NC(=O)c2ccc3c(c2)N(C[C@@H]2CC[C@H]21)C[C@@]1(CCCc2cc(Cl)ccc21)CO3 [Example 73]
- IC50 [1]: 0.3 nM
- EC50 (SKBR3 cells; Homo sapiens, SK-BR-3, 72 h): 2450 nM

Structure (SMILES): CCC(=O)N[S@@]1(=O)=NC(=O)c2ccc3c(c2)N(C[C@@H]2CC[C@H]2[C@@H](OCCN2CCN(C)CC2)/C=C/CCC1)C[C@@]1(CCCc2cc(Cl)ccc21)CO3 [Example 68]
- IC50 [1]: 46.9 nM
- EC50 (SKBR3 cells; Homo sapiens, SK-BR-3, 72 h): 6300 nM

Structure (SMILES): CO[C@H]1/C=C/C[C@H](C)C[S@@](=O)(NC(=O)N2CC3(CCO3)C2)=NC(=O)c2ccc3c(c2)N(C[C@@H]2CC[C@H]21)C[C@@]1(CCCc2cc(Cl)ccc21)CO3 [Example 230]
- IC50 [1]: 0.027 nM
- EC50 (SKBR3 cells; Homo sapiens, SK-BR-3, 72 h): 47.1 nM

Structure (SMILES): CO[C@H]1/C=C/C[C@H](C)[C@@H](C)[S@@](=O)(NC(=O)c2cc3n(c2)C[C@H](C)OC3)=NC(=O)c2ccc3c(c2)N(C[C@@H]2CC[C@H]21)C[C@@]1(CCCc2cc(Cl)ccc21)CO3 [Example 218]
- IC50 [1]: 0.345 nM
- EC50 (SKBR3 cells; Homo sapiens, SK-BR-3, 72 h): 85.5 nM

Structure (SMILES): CO[C@H]1/C=C/C[C@H](C)C[S@@](=O)(NC(=O)c2cc3n(c2F)CCCC3)=NC(=O)c2ccc3c(c2)N(C[C@@H]2CC[C@H]21)C[C@@]1(CCCc2cc(Cl)ccc21)CO3 [Example 174]
- IC50 [1]: 0.153 nM
- EC50 (SKBR3 cells; 72 hours): 103 nM
